The target of series [1] is T1, Z α1-antitrypsin (Homo sapiens, UniProt P01009, E366K/V237A). The series is described as follows: Secretion of Z α1-antitrypsin from CHO-TET-ON-Z-A1AT cells (immunoassay of supernatant). Type of series: cell-based. The arrangement: expressed in transfected cells; host or cells: CHO Tet-On (CHO-K1) cells, doxycycline-induced. The procedure: CHO Tet-On cells that conditionally express Z α1-antitrypsin (Ordóñez A et al. Hepatology 2013; 57(5):2049-60.) were simultaneously treated with 0.5 μg/mL […] and various concentrations of compounds for 48 hours in 6 well plates. Cells without doxycycline or treated with 1% v/v DMSO acted as controls. The cells were lysed and intracellular Z α1-antitrypsin polymer was evaluated by ELISA sandwich with the 2C1 monoclonal antibody (Miranda et al. Hepatology. 2010; 52:1078-88). Newly synthesised α1-antitrypsin was evaluated by growing cells induced to express Z α1-antitrypsin in DMEM without methionine (Met) and cysteine (Cys) for 1 h and then labelling with 1.3 MBq of ^35S-Met/Cys for 15 min. The cells were then rinsed and incubated in chase medium containing an excess of unlabeled Met and Cys for 0, 2 and 6 h. After the chase period, the medium was collected and cells were harvested. α1-Antitrypsin from the medium and cell lysates was immunoprecipitated with a polyclonal α1-antitrypsin antibody or the 2C1 monoclonal antibody that detects polymers by splitting each sample in two equal parts. Radiolabelled proteins were re-suspended in SDS loading buffer, boiled for 5 min, separated by 10% w/v acrylamide SDS-PAGE, and quantified by autoradiography.
T1 sequence (P01009 25-418 V237A/E366K): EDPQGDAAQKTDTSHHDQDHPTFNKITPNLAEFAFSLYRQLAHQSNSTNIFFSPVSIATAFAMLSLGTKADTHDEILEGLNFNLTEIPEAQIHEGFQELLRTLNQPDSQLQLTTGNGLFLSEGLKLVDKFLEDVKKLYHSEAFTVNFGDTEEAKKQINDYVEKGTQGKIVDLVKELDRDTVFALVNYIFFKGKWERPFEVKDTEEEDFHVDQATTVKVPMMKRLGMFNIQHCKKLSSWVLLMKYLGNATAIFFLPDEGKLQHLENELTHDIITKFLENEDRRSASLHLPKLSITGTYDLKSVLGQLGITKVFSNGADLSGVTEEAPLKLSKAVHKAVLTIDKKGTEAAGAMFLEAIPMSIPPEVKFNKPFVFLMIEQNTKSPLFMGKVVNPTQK
Its ability to block Z α1-antitrypsin polymerisation in the ER during folding was assessed by adding Compound 1 to CHO-TET-ON-Z-A1AT cells (Ordóñez et al. Hepatology. 2013; 57(5):2049-60) with simultaneous induction of Z α1-antitrypsin expression using doxycycline. […] To investigate whether in addition to blocking polymerisation, Compound 1 was also able to increase secretion of Z α1-antitrypsin, Z α1-antitrypsin expression was induced in CHO-TET-ON-Z-A1AT cells, Compound 1 was added, and the total Z α1-antitrypsin in the supernatant was measured by immunoassay after 6 hours.

A further series has as its target T2, antichymotrypsin (Homo sapiens, UniProt P01011).
T2 sequence (P01011 24-423): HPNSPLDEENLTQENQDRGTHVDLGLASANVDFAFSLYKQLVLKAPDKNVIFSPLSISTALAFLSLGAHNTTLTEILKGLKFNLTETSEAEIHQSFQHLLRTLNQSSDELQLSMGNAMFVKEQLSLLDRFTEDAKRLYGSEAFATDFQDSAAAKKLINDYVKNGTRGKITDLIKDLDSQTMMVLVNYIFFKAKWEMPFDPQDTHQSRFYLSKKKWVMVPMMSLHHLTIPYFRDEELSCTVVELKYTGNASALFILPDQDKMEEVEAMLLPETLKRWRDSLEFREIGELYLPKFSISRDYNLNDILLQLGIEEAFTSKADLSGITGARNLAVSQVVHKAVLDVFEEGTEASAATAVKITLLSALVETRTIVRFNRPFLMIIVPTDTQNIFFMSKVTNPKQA
The series is described as follows: Serpin inhibitory activity, antichymotrypsin. Type of series: biochemical. The settings on record: incubation with 50 μM. An excerpt:
(§1) In order to investigate suitability of Compound 1 for progression into in vivo studies and the potential for taking forward as a clinical candidate for testing in human, Compound 1 was profiled against a panel of in vitro assays for off-targets considered predictive of potential safety liabilities. […] The measured potency of these marginal activities were at least 10-fold below the cellular activity of Compound 1 at blocking Z α1-antitrypsin polymerisation (pEC50 6.3). Loss of inhibitory activity represents a means by which possible off-target engagement with other serpins can be evaluated. However in contrast to α1-antitrypsin upon incubation with 50 μM Compound 1 the inhibitory activity of the homologues antithrombin, neuroserpin and antichymotrypsin was not affected.

A further series in a line: ChromLogD. Type of series: physicochemical.
The target of the next series is antithrombin (Homo sapiens, UniProt P01008). The series is described as follows: Serpin inhibitory activity, antithrombin. The settings on record: incubation with 50 μM. Type of series: biochemical.
Sequence of antithrombin (P01008 33-464): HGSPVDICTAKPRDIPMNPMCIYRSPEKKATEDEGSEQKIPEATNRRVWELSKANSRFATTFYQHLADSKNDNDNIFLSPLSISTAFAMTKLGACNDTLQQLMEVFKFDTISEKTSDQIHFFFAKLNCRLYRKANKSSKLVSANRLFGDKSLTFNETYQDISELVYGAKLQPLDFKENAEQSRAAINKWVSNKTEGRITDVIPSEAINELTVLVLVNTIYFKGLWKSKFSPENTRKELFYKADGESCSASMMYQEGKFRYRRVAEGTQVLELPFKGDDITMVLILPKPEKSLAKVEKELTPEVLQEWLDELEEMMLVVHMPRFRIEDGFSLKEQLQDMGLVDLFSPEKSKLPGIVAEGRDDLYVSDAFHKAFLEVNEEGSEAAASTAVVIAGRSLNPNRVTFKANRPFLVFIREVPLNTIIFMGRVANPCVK
Excerpt: as §1

For series [2], the target named is T1, Z α1-antitrypsin. Put plainly: Biochemical competition binding assay (TR-FRET), Z α1-antitrypsin. Set-up: a random insertion of the human Z α1-antitrypsin gene; from tissue; host or cells: liver and plasma of Z α1-antitrypsin transgenic mice (human Z transgene). Conditions: competition binding with fluorescently labelled derivative; read-out: affinity (KD) to Z α1-antitrypsin. The procedure:
Alpha1-antitrypsin was purified from the plasma of ZZ and MM α1-antitrypsin homozygotes as described in Lomas et al., Biochemistry. 1993; 32:500-8. Recombinant Cys232Ser α1-antitrypsin was expressed and purified as detailed in Irving et al. Methods Enzymol. 2011; 501:421-66 and Haq et al. Biosci Rep. 2013; 33(3):e00046.
A fluorescent derivative of compound 1 was prepared by derivatizing compound 1 at its ring nitrogen atom with an Alexa Fluor 488 label via a short organic linker group.
A serial dilution of test compounds in DMSO was diluted 25-fold with assay buffer, and 2.5 μl of this intermediate dilution transferred to a black, low-volume 384-well microtitre plate (Greiner BioOne; product no. 784076). […]
Plates were sealed and incubated overnight at room temperature, or for 3 days at 4° C. then 6 hours at room temperature. […] The TR-FRET signal was read on an Envision plate reader, by excitation of Terbium at 337 nm and detection of emission at 520 nm and 495 nm.
Dissociation constants (KD) for the affinity of compounds to Z-a1AT or M-a1AT protein were derived from the pIC50 values according to the Cheng-Prusoff equation, taking into account the concentration of fluorescent ligand used in relation to its affinity as determined in independent Fluorescence Polarisation and TR-FRET experiments: KD(compound)=10^−pIC50(compound)/([…]. Compound Association Experiments
Background: Time-resolved FRET reads energy transfer from a long-lived donor to a nearby acceptor.

Like-named read-outs stand apart in the source and are kept apart here.

For orientation: Kd means the concentration at which binding is half-saturated. As for `CCC[C@@H](NC(=O)c1cccc2c1CC(=O)N2)[C@@H](O)c1cccc(F)c1C` [Compound 1, N-[(1S,2R)-1-(3-fluoro-2-methylphenyl)-1-hydroxypentan-2-yl]-2-oxo-2,3-dihydro-1H-indole-4-carboxamide], the EC50 at Z α1-antitrypsin [1] (CHO-TET-ON-Z-A1AT cells, after 6 hours, read-out: pEC50, secretion of Z α1-antitrypsin (converted)) was 501 nM; at Z α1-antitrypsin [1] (cellular secretion assay, read-out: EC50 measured for secretion of Z α1-antitrypsin), around 300 nM. Also, at Z α1-antitrypsin [1] (CHO-TET-ON-Z-A1AT cells, supernatant after 6 hours, compared to vehicle control), the “increase of secreted levels of Z α1-antitrypsin” value is on record as “approximately 3 fold”. Further, the “inhibitory activity of antichymotrypsin” value against antichymotrypsin is “not affected”. Moreover, the “ChromLogD (pH7.4)” value in “ChromLogD” came to 3.8. In addition, the “inhibitory activity of antithrombin” value on antithrombin was “not affected”. Besides, the dissociation constant Kd at Z α1-antitrypsin [2] was 1.5 nM.

For the origin of these results see US11919856B2, “Compounds” (UCL BUSINESS LTD, priority 2018, dated 2024).
